# In ChEMBL document CHEMBL3046389, “Synthesis and biological evaluation of novel hydroquinone dimethyl ethers as potential anticancer and antimicrobial agents” (2013):
# Tests used:
# Format in all cases: functional
# SF-539 = experiment: Growth inhibition of Homo sapiens (human) SF539 cells at 10 uM after 48 hr by SRB assay; conditions: SF-539, 48 h, read-out: GI
# RXF 393 [1] = experiment: Anticancer activity against Homo sapiens (human) RXF393 cells after 48 hr by SRB assay; conditions: RXF 393, 48 h
# HL-60(TB) [2] = experiment: Anticancer activity against Homo sapiens (human) HL-60(TB) cells after 48 hr by SRB assay; conditions: HL-60, 48 h; for CC50: read-out: LC50 (the source's name)
# Hs-578T = experiment: Anticancer activity against Homo sapiens (human) Hs 578T cells after 48 hr by SRB assay; conditions: for CC50: read-out: LC50 (the source's name)
# SNB-19 [3] = experiment: Growth inhibition of Homo sapiens (human) SNB19 cells at 10 uM after 48 hr by SRB assay; conditions: SNB-19, 48 h, read-out: GI
# SN12C = experiment: Anticancer activity against Homo sapiens (human) SN12C cells after 48 hr by SRB assay
# SNB-75 = experiment: Anticancer activity against Homo sapiens (human) SNB75 cells after 48 hr by SRB assay; conditions: SNB-75, 48 h; for CC50: read-out: LC50 (the source's name)
# PC-3 = experiment: Anticancer activity against Homo sapiens (human) PC3 cells after 48 hr by SRB assay; conditions: PC-3, 48 h; for CC50: read-out: LC50 (the source's name)
# MCF7 = experiment: Anticancer activity against Homo sapiens (human) MCF7 cells after 48 hr by SRB assay; conditions: MCF7, 48 h; for CC50: read-out: LC50 (the source's name)
# HL-60(TB) [4] = experiment: Growth inhibition of Homo sapiens (human) HL-60(TB) cells at 10 uM after 48 hr by SRB assay; conditions: HL-60, 48 h, read-out: GI
# A549 = experiment: Growth inhibition of Homo sapiens (human) A549/ATCC cells at 10 uM after 48 hr by SRB assay; conditions: A549, 48 h, read-out: GI
# UACC-62 = experiment: Anticancer activity against Homo sapiens (human) UACC62 cells after 48 hr by SRB assay; conditions: UACC-62, 48 h
# SNB-19 [5] = experiment: Anticancer activity against Homo sapiens (human) SNB19 cells after 48 hr by SRB assay; conditions: SNB-19, 48 h; for CC50: read-out: LC50 (the source's name)
# MDA-MB-435 = experiment: Anticancer activity against Homo sapiens (human) MDA-MB-435 cells after 48 hr by SRB assay; conditions: MDA-MB-435, 48 h; for CC50: read-out: LC50 (the source's name)
# SK-MEL-5 = experiment: Anticancer activity against Homo sapiens (human) SK-MEL-5 cells after 48 hr by SRB assay; conditions: SK-MEL-5, 48 h
# NCI-H460 [6] = experiment: Growth inhibition of Homo sapiens (human) NCI-H460 cells at 10 uM after 48 hr by SRB assay; conditions: NCI-H460, 48 h, read-out: GI
# OVCAR-4 = experiment: Anticancer activity against Homo sapiens (human) OVCAR4 cells after 48 hr by SRB assay; conditions: OVCAR-4, 48 h; for CC50: read-out: LC50 (the source's name)
# T47D = experiment: Anticancer activity against Homo sapiens (human) T47D cells after 48 hr by SRB assay; conditions: for CC50: read-out: LC50 (the source's name)
# 786-0 = experiment: Growth inhibition of Homo sapiens (human) 786-0 cells at 10 uM after 48 hr by SRB assay; conditions: 786-0, 48 h, read-out: GI
# UO-31 = experiment: Anticancer activity against Homo sapiens (human) UO31 cells after 48 hr by SRB assay; conditions: UO-31, 48 h
# MDA-MB-468 = experiment: Anticancer activity against Homo sapiens (human) MDA-MB-468 cells after 48 hr by SRB assay; conditions: MDA-MB-468, 48 h; for CC50: read-out: LC50 (the source's name)
# RPMI-8226 = experiment: Anticancer activity against Homo sapiens (human) RPMI8226 cells after 48 hr by SRB assay; conditions: RPMI-8226, 48 h; for CC50: read-out: LC50 (the source's name)
# NCI-H522 = experiment: Anticancer activity against Homo sapiens (human) NCI-H522 cells after 48 hr by SRB assay; conditions: NCI-H522, 48 h; for CC50: read-out: LC50 (the source's name)
# MOLT-4 = experiment: Growth inhibition of Homo sapiens (human) MOLT4 cells at 10 uM after 48 hr by SRB assay; conditions: MOLT-4, 48 h, read-out: GI
# NCI-H460 [7] = experiment: Anticancer activity against Homo sapiens (human) NCI-H460 cells after 48 hr by SRB assay; conditions: NCI-H460, 48 h; for CC50: read-out: LC50 (the source's name)
# SW-620 = experiment: Anticancer activity against Homo sapiens (human) SW620 cells after 48 hr by SRB assay; conditions: SW-620, 48 h; for CC50: read-out: LC50 (the source's name)
# SK-MEL-2 = experiment: Anticancer activity against Homo sapiens (human) SK-MEL-2 cells after 48 hr by SRB assay; conditions: SK-MEL-2, 48 h; for CC50: read-out: LC50 (the source's name)
# CCRF-CEM [8] = experiment: Anticancer activity against Homo sapiens (human) CCRF-CEM cells after 48 hr by SRB assay; conditions: for CC50: read-out: LC50 (the source's name)
# RXF 393 [9] = experiment: Growth inhibition of Homo sapiens (human) RXF393 cells at 10 uM after 48 hr by SRB assay; conditions: RXF 393, 48 h, read-out: GI
# CCRF-CEM [10] = experiment: Growth inhibition of Homo sapiens (human) CCRF-CEM cells at 10 uM after 48 hr by SRB assay; conditions: read-out: GI
# UACC-257 = experiment: Anticancer activity against Homo sapiens (human) UACC257 cells after 48 hr by SRB assay; conditions: UACC-257, 48 h
# HCT-116 = experiment: Growth inhibition of Homo sapiens (human) HCT116 cells at 10 uM after 48 hr by SRB assay; conditions: HCT-116, 48 h, read-out: GI
smiles,measurement,setting,value
COc1ccc(OC)c(/C=C/C(=O)N/N=C/c2ccccc2)c1,inhibition of growth at 10 µM,SF-539,48.2%
same,GI50,RXF 393 [1],3.9 µM
same,LC50,RXF 393 [1],> 100 µM
same,TGI,RXF 393 [1],26.6 µM
same,GI50,HL-60(TB) [2],2.03 µM
same,TGI,HL-60(TB) [2],13.7 µM
same,CC50,HL-60(TB) [2],> 100 µM
same,GI50,Hs-578T,9.07 µM
same,TGI,Hs-578T,> 100 µM
same,CC50,Hs-578T,> 100 µM
same,inhibition of growth at 10 µM,SNB-19 [3],52.1%
same,GI50,SN12C,4.17 µM
same,LC50,SN12C,> 100 µM
same,TGI,SN12C,39.9 µM
same,GI50,SNB-75,4.39 µM
same,TGI,SNB-75,37.3 µM
same,CC50,SNB-75,> 100 µM
same,GI50,PC-3,5.86 µM
same,TGI,PC-3,52.1 µM
same,CC50,PC-3,> 100 µM
same,GI50,MCF7,3.79 µM
same,TGI,MCF7,> 100 µM
same,CC50,MCF7,> 100 µM
same,inhibition of growth at 10 µM,HL-60(TB) [4],53.6%
same,inhibition of growth at 10 µM,A549,51.6%
same,GI50,UACC-62,3.55 µM
same,LC50,UACC-62,> 100 µM
same,TGI,UACC-62,75.8 µM
same,GI50,SNB-19 [5],4.12 µM
same,TGI,SNB-19 [5],> 100 µM
same,CC50,SNB-19 [5],> 100 µM
same,GI50,MDA-MB-435,0.283 µM
same,TGI,MDA-MB-435,1.98 µM
same,CC50,MDA-MB-435,> 100 µM
same,GI50,SK-MEL-5,2.94 µM
same,LC50,SK-MEL-5,> 100 µM
same,TGI,SK-MEL-5,14.6 µM
same,inhibition of growth at 10 µM,NCI-H460 [6],86.5%
same,GI50,OVCAR-4,14.3 µM
same,TGI,OVCAR-4,> 100 µM
same,CC50,OVCAR-4,> 100 µM
same,GI50,T47D,4.86 µM
same,TGI,T47D,> 100 µM
same,CC50,T47D,> 100 µM
same,inhibition of growth at 10 µM,786-0,45.7%
same,GI50,UO-31,5.9 µM
same,LC50 (50% lethal concentration),UO-31,> 100 µM
same,TGI,UO-31,85.5 µM
same,GI50,MDA-MB-468,1.96 µM
same,TGI,MDA-MB-468,6.47 µM
same,CC50,MDA-MB-468,61.6 µM
same,GI50,RPMI-8226,2.99 µM
same,TGI,RPMI-8226,9.96 µM
same,CC50,RPMI-8226,> 100 µM
same,GI50,NCI-H522,1.57 µM
same,TGI,NCI-H522,41.7 µM
same,CC50,NCI-H522,> 100 µM
same,inhibition of growth at 10 µM,MOLT-4,63.5%
same,GI50,NCI-H460 [7],2.08 µM
same,TGI,NCI-H460 [7],5.62 µM
same,CC50,NCI-H460 [7],28.3 µM
same,GI50,SW-620,1.5 µM
same,TGI,SW-620,6.23 µM
same,CC50,SW-620,> 100 µM
same,GI50,SK-MEL-2,2.98 µM
same,TGI,SK-MEL-2,9.32 µM
same,CC50,SK-MEL-2,> 100 µM
same,GI50,CCRF-CEM [8],3.97 µM
same,TGI,CCRF-CEM [8],> 100 µM
same,CC50,CCRF-CEM [8],> 100 µM
same,inhibition of growth at 10 µM,RXF 393 [9],54.6%
same,inhibition of growth at 10 µM,CCRF-CEM [10],44.8%
same,GI50,UACC-257,5.76 µM
same,LC50 (50% lethal concentration),UACC-257,> 100 µM
same,TGI,UACC-257,33.6 µM
same,inhibition of growth at 10 µM,HCT-116,85.8%
COc1ccc(OC)c(/C=C/c2nnc(S)n2-c2ccc(Cl)cc2)c1,inhibition of growth at 10 µM,SF-539,60.5%
same,GI50,RXF 393 [1],3.38 µM
same,LC50,RXF 393 [1],> 100 µM
same,TGI,RXF 393 [1],38.7 µM
same,GI50,HL-60(TB) [2],3.57 µM
same,TGI,HL-60(TB) [2],> 100 µM
same,CC50,HL-60(TB) [2],> 100 µM
same,GI50,Hs-578T,3.1 µM
same,TGI,Hs-578T,> 100 µM
same,CC50,Hs-578T,> 100 µM
same,inhibition of growth at 10 µM,SNB-19 [3],48.8%
same,GI50,SN12C,6.07 µM
same,LC50,SN12C,> 100 µM
same,TGI,SN12C,> 100 µM
same,GI50,SNB-75,2.85 µM
same,TGI,SNB-75,> 100 µM
same,CC50,SNB-75,> 100 µM
same,GI50,PC-3,8.91 µM
same,TGI,PC-3,> 100 µM
same,CC50,PC-3,> 100 µM
same,GI50,MCF7,4.44 µM
same,TGI,MCF7,> 100 µM
same,CC50,MCF7,> 100 µM
same,inhibition of growth at 10 µM,HL-60(TB) [4],95.7%
same,inhibition of growth at 10 µM,A549,33.7%
same,GI50,UACC-62,3.11 µM
same,LC50,UACC-62,> 100 µM
same,TGI,UACC-62,> 100 µM
same,GI50,SNB-19 [5],12.7 µM
same,TGI,SNB-19 [5],> 100 µM
same,CC50,SNB-19 [5],> 100 µM
same,GI50,MDA-MB-435,2.83 µM
same,TGI,MDA-MB-435,> 100 µM
same,CC50,MDA-MB-435,> 100 µM
same,GI50,SK-MEL-5,3.58 µM
same,LC50,SK-MEL-5,> 100 µM
same,TGI,SK-MEL-5,> 100 µM
same,inhibition of growth at 10 µM,NCI-H460 [6],61.1%
same,GI50,OVCAR-4,20.6 µM
same,TGI,OVCAR-4,> 100 µM
same,CC50,OVCAR-4,> 100 µM
same,GI50,T47D,4.5 µM
same,TGI,T47D,> 100 µM
same,CC50,T47D,> 100 µM
same,inhibition of growth at 10 µM,786-0,41.1%
same,GI50,UO-31,2.25 µM
same,LC50 (50% lethal concentration),UO-31,> 100 µM
same,GI50,MDA-MB-468,3.51 µM
same,TGI,MDA-MB-468,55.4 µM
same,CC50,MDA-MB-468,> 100 µM
same,GI50,RPMI-8226,5.22 µM
same,TGI,RPMI-8226,> 100 µM
same,CC50,RPMI-8226,> 100 µM
same,GI50,NCI-H522,4.07 µM
same,TGI,NCI-H522,> 100 µM
same,CC50,NCI-H522,> 100 µM
same,inhibition of growth at 10 µM,MOLT-4,47.2%
same,GI50,NCI-H460 [7],4.53 µM
same,TGI,NCI-H460 [7],> 100 µM
same,CC50,NCI-H460 [7],> 100 µM
same,GI50,SW-620,5.09 µM
same,TGI,SW-620,> 100 µM
same,CC50,SW-620,> 100 µM
same,GI50,SK-MEL-2,4.05 µM
same,TGI,SK-MEL-2,> 100 µM
same,CC50,SK-MEL-2,> 100 µM
same,GI50,CCRF-CEM [8],4.77 µM
same,TGI,CCRF-CEM [8],> 100 µM
same,CC50,CCRF-CEM [8],> 100 µM
same,inhibition of growth at 10 µM,RXF 393 [9],48.1%
same,inhibition of growth at 10 µM,CCRF-CEM [10],39.4%
same,GI50,UACC-257,> 100 µM
same,LC50 (50% lethal concentration),UACC-257,> 100 µM
same,TGI,UACC-257,> 100 µM
same,inhibition of growth at 10 µM,HCT-116,70.4%
